Laboratory results as given in patent US20250313560A1, “Novel bicyclic benzylamido pyridine derivatives as SOS1 inhibitors” (Boehringer Ingelheim International GmbH, priority 2024, published 2025).

Test system: human hepatocytes
Test: Metabolic stability in human hepatocytes
Conditions: 1 μM test compound, 50% human serum, percentage of liver blood flow

- Hepatic clearance - QH[%] in human hepatocytes: 25%
Structure (SMILES): C[C@@H](NC(=O)c1cc(N2CCC(N3CCCC(O)CC3)CC2)c2ncnn2c1)c1cccc(C(F)(F)F)c1F (stereo partly shown) [Example E43b]
